Source: ChEMBL document CHEMBL3286323, “The design and synthesis of novel SGLT2 inhibitors: C-glycosides with benzyltriazolopyridinone and phenylhydantoin as the aglycone moieties” (Bioorg Med Chem, 2014)

Columns and labels:
[1] = biological target: T1, Sodium/glucose cotransporter 1 (Homo sapiens, UniProt P13866); test: Inhibition of human SGLT1 expressed in CHOK1 cells assessed as inhibition of [14C]-AMG uptake after 3 hrs by microbeta scintillation counting analysis; format: cell-based, CHO-K1
T1 sequence (P13866 whole entry): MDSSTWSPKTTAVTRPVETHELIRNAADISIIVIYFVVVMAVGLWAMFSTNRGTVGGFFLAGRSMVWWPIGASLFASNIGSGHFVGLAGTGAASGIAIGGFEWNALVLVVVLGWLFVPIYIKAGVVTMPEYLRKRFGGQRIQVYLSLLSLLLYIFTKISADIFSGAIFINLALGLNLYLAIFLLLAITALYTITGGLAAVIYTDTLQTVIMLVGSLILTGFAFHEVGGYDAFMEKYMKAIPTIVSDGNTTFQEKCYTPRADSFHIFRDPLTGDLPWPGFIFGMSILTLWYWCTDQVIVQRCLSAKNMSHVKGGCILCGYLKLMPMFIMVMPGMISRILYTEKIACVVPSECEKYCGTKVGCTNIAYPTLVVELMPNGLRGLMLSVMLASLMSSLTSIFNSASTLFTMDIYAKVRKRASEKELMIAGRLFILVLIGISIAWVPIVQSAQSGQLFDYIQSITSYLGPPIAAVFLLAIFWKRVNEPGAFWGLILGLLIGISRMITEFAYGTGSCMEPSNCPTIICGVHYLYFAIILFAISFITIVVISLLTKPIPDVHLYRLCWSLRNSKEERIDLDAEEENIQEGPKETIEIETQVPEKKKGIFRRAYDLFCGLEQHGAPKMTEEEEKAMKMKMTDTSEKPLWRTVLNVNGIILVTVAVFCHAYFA

[2] = biological target: T2, Sodium/glucose cotransporter 2 (Homo sapiens, UniProt P31639); test: Inhibition of human SGLT2 expressed in CHOK1 cells assessed as inhibition of [14C]-AMG uptake after 3 hrs by microbeta scintillation counting analysis; format: cell-based, CHO-K1
T2 sequence (P31639 whole entry): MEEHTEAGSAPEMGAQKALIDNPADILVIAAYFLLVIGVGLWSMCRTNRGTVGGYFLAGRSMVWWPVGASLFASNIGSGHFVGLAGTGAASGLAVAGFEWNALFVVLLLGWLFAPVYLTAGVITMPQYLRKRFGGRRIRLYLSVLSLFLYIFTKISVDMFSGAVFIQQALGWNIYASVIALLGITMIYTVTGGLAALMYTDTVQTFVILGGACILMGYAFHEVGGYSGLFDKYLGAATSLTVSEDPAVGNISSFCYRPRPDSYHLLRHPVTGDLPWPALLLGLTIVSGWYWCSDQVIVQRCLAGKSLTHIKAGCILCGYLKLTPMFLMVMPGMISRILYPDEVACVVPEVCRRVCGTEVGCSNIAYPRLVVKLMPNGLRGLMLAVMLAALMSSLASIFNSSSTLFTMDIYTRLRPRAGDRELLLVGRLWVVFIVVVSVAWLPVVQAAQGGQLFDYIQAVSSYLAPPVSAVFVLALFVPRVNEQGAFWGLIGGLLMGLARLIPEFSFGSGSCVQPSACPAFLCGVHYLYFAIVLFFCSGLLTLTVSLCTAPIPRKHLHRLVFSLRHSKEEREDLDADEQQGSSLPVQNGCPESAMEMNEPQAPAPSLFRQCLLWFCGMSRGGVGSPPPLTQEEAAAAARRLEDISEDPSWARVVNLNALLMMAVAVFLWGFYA

Cytochrome P450 2C19 = Cytochrome P450 2C19 (Homo sapiens, UniProt P33261); test: Inhibition of CYP2C19 (unknown origin); format: ADME
Chain of Cytochrome P450 2C19 (P33261 whole entry): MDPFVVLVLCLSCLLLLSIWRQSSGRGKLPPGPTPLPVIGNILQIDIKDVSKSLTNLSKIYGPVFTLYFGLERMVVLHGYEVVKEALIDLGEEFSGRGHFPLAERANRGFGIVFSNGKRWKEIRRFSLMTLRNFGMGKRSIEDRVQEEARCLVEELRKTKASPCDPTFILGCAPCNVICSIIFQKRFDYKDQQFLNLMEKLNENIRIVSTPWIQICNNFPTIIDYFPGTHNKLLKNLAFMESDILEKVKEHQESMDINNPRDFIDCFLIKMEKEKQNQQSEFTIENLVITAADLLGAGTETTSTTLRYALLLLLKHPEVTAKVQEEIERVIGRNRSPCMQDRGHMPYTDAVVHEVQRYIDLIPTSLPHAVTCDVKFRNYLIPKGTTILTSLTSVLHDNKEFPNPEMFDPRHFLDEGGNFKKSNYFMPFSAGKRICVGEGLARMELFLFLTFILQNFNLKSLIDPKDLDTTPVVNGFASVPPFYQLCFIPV

Cytochrome P450 2B6 = biological target: T3, Cytochrome P450 2B6 (Homo sapiens, UniProt P20813); test: Inhibition of CYP2B6 (unknown origin); format: ADME
T3 sequence (P20813 whole entry): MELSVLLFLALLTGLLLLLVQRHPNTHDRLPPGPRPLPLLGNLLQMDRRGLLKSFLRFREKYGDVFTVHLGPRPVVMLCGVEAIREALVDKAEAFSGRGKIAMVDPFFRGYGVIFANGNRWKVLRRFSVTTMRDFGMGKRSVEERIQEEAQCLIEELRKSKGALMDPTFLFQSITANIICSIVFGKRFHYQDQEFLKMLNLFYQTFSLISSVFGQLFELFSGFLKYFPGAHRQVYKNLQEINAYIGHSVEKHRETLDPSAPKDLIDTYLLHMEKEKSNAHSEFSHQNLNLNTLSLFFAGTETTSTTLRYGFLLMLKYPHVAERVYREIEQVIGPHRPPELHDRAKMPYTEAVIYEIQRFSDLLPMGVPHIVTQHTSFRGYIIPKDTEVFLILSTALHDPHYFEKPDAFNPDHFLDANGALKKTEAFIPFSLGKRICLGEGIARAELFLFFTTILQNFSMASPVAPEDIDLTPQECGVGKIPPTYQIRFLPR

Cytochrome P450 1A2 = biological target: T4, Cytochrome P450 1A2 (Homo sapiens, UniProt P05177); test: Inhibition of CYP1A2 (unknown origin); format: ADME
T4 sequence (P05177 whole entry): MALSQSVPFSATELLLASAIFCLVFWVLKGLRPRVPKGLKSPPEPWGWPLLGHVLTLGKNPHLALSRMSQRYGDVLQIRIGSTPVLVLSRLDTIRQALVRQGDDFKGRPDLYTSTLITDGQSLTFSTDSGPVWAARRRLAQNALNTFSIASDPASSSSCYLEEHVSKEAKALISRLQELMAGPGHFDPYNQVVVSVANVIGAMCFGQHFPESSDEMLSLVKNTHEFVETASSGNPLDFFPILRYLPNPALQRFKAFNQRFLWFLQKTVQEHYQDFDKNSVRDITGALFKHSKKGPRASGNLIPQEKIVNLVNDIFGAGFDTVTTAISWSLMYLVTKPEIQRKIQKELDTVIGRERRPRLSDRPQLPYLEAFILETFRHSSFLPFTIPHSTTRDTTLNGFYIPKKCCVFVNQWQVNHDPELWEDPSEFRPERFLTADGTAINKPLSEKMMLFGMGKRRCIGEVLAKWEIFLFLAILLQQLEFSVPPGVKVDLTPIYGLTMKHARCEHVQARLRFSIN

Cytochrome P450 2D6 = Cytochrome P450 2D6 (Homo sapiens, UniProt P10635); test: Inhibition of CYP2D6 (unknown origin); format: ADME
Chain of Cytochrome P450 2D6 (P10635 whole entry): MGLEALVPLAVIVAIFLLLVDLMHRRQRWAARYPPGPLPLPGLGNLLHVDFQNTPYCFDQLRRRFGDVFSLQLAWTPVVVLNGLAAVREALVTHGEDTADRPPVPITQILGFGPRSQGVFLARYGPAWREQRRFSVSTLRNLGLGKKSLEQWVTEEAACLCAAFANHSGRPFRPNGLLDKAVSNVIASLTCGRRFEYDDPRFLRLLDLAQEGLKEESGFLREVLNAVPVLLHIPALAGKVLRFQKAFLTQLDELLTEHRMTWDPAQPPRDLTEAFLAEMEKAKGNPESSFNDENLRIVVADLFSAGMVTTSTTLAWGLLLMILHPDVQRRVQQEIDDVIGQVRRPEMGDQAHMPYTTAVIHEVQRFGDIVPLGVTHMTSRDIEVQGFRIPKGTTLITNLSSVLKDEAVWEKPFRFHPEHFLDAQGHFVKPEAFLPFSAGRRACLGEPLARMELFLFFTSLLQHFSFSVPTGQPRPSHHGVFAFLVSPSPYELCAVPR

Cytochrome P450 2C9 = Cytochrome P450 2C9 (Homo sapiens, UniProt P11712); test: Inhibition of CYP2C9 (unknown origin); format: ADME
Chain of Cytochrome P450 2C9 (P11712 whole entry): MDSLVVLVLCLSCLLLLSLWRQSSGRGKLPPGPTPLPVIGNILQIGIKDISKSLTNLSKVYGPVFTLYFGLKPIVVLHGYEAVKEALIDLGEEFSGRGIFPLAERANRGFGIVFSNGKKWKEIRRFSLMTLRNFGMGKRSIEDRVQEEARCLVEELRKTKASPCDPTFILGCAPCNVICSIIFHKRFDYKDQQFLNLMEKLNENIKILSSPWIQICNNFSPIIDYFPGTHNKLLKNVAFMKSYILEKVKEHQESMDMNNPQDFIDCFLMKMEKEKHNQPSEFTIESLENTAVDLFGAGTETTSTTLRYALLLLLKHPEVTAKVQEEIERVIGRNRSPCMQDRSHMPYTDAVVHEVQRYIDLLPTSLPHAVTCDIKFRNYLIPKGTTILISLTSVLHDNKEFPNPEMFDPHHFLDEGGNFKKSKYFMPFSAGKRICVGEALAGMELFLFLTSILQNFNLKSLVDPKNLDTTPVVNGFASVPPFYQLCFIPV

[3] = Intrinsic clearance in rat liver microsomes; format: ADME; conditions: read-out: CLH
[4] = Intrinsic clearance in human liver microsomes; format: ADME; conditions: read-out: CLH
Cytochrome P450 3A4 = Cytochrome P450 3A4 (Homo sapiens, UniProt P08684); test: Inhibition of CYP3A4 (unknown origin); format: ADME
Chain of Cytochrome P450 3A4 (P08684 whole entry): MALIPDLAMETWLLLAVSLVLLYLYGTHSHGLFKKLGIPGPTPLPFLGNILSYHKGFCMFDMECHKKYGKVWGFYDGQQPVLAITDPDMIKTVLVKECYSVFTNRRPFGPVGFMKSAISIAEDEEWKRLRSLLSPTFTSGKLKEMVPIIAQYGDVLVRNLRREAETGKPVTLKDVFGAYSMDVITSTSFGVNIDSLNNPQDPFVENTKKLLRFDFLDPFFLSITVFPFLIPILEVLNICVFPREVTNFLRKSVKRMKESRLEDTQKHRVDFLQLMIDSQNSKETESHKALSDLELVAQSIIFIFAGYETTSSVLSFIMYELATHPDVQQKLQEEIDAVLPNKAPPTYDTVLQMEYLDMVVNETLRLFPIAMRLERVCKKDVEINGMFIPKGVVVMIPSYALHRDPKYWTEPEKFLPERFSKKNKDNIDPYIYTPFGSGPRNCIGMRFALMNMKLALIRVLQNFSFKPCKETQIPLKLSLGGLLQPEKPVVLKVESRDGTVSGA

[5] = Half life in rat; format: ADME, organism-based; conditions: in vivo
[6] = Oral bioavailability in rat; format: ADME, organism-based; conditions: in vivo

Structure (SMILES)	IC50 [1] [µM]	IC50 [2] [µM]	other results
O=c1n(Cc2cc([C@@H]3O[C@H](CO)[C@@H](O)[C@H](O)[C@H]3O)ccc2Cl)nc2ccc(Cl)cn12	> 90	0.08	–
O=c1n(Cc2cc([C@@H]3O[C@H](CO)[C@@H](O)[C@H](O)[C@H]3O)ccc2Cl)nc2ccc(Br)cn12	> 90	0.107	–
O=c1n(Cc2cc([C@@H]3O[C@H](CO)[C@@H](O)[C@H](O)[C@H]3O)ccc2Cl)nc2ccc(C(F)(F)F)cn12	–	0.762	–
O=c1n(Cc2cc([C@@H]3O[C@H](CO)[C@@H](O)[C@H](O)[C@H]3O)ccc2Cl)nc2cc(C(F)(F)F)ccn12	> 90	0.252	–
O=c1n(Cc2cc([C@@H]3O[C@H](CO)[C@@H](O)[C@H](O)[C@H]3O)ccc2Cl)nc2cc(OCC(F)(F)F)ccn12	> 90	5.7	–
O=c1n(Cc2cc([C@@H]3O[C@H](CO)[C@@H](O)[C@H](O)[C@H]3O)ccc2Cl)nc2c(F)cccn12	> 90	3.3	–
Cc1cc2nn(Cc3cc([C@@H]4O[C@H](CO)[C@@H](O)[C@H](O)[C@H]4O)ccc3Cl)c(=O)n2cc1Cl	–	0.033	IC50 (Cytochrome P450 2C19): > 11 µM; IC50 (Cytochrome P450 2B6): > 11 µM; IC50 (Cytochrome P450 1A2): > 11 µM; IC50 (Cytochrome P450 2D6): > 11 µM; IC50 (Cytochrome P450 2C9): > 11 µM; microsomal CLint [3]: 2.8 µL/min/mg; microsomal CLint [4]: 3.6 µL/min/mg; IC50 (Cytochrome P450 3A4): > 11 µM
CCN1C(=O)CN(c2ccc(Cc3cc([C@@H]4O[C@H](CO)[C@@H](O)[C@H](O)[C@H]4O)ccc3Cl)cc2)C1=O	–	0.0109	half-life [5]: 35 min; IC50 (Cytochrome P450 2C19): > 11 µM; bioavailability [6]: 4%; IC50 (Cytochrome P450 2B6): > 11 µM; IC50 (Cytochrome P450 1A2): > 11 µM; IC50 (Cytochrome P450 2D6): > 11 µM; IC50 (Cytochrome P450 2C9): > 11 µM; microsomal CLint [3]: 1.9 µL/min/mg; microsomal CLint [4]: 1.3 µL/min/mg; IC50 (Cytochrome P450 3A4): > 11 µM

The next lines start with results.

IC50 [1] [µM]	IC50 [2] [µM]	Structure (SMILES)	other results
> 90	–	O=c1n(Cc2cc([C@@H]3O[C@H](CO)[C@@H](O)[C@H](O)[C@H]3O)ccc2Cl)nc2ccccn12	–
> 90	0.12	Cc1ccc2nn(Cc3cc([C@@H]4O[C@H](CO)[C@@H](O)[C@H](O)[C@H]4O)ccc3Cl)c(=O)n2c1	–
–	0.141	O=c1n(Cc2cc([C@@H]3O[C@H](CO)[C@@H](O)[C@H](O)[C@H]3O)ccc2Cl)nc2ccc(CO)cn12	–
> 90	–	O=c1n(Cc2cc([C@@H]3O[C@H](CO)[C@@H](O)[C@H](O)[C@H]3O)ccc2Cl)nc2ccc(F)cn12	–
–	0.089	O=c1n(Cc2cc([C@@H]3O[C@H](CO)[C@@H](O)[C@H](O)[C@H]3O)ccc2Cl)nc2cc(Cl)ccn12	–
> 90	–	Cc1ccn2c(=O)n(Cc3cc([C@@H]4O[C@H](CO)[C@@H](O)[C@H](O)[C@H]4O)ccc3Cl)nc2c1	–
> 90	5.48	COc1ccn2c(=O)n(Cc3cc([C@@H]4O[C@H](CO)[C@@H](O)[C@H](O)[C@H]4O)ccc3Cl)nc2c1	–
> 90	9.92	Cc1cccc2nn(Cc3cc([C@@H]4O[C@H](CO)[C@@H](O)[C@H](O)[C@H]4O)ccc3Cl)c(=O)n12	–
> 90	9	O=c1n(Cc2cc([C@@H]3O[C@H](CO)[C@@H](O)[C@H](O)[C@H]3O)ccc2Cl)nc2c(Cl)cccn12	–
83.1	0.248	CN1C(=O)N(c2ccc(Cc3cc([C@@H]4O[C@H](CO)[C@@H](O)[C@H](O)[C@H]4O)ccc3Cl)cc2)C(C)(C)C1=O	–
90	0.489	CN1C(=O)CN(c2ccc(Cc3cc([C@@H]4O[C@H](CO)[C@@H](O)[C@H](O)[C@H]4O)ccc3Cl)cc2)C1=O	–
